Test results from PubChem BioAssay AID1963983 (Molecular Pharmacology Branch, DTP, NCI, 2024).

Tested on: 186277-243-T-J2-PDC multi-cell spheroid viability
Assay: Anticancer human tumor 186277-243-T-J2-PDC patient-derived colon adenocarcinoma cell line growth inhibition [PI3K]
Conditions: for IC50: curve of first compound; for viability, T/C: stronger effect = lower value
Procedure, shortened: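 Multi-cell spheroids combine tumor cells with HUVEC and human MSCs, treated with targeted agents alone or with inavolisib, alpelisib, duvelisib or copanlisib. Concentrations fall in half-log steps from at or near clinical Cmax, or from 10 microM where Cmax is unknown; viability read-out.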

[1] = second compound 0.00316 µM, first compound 0.0316 µM
[2] = second compound 0.00316 µM, first compound 0.1 µM
[3] = second compound 0.00316 µM, first compound 0.316 µM
[4] = second compound 0.00316 µM, first compound 1 µM
[5] = second compound 0.00316 µM, first compound 3.16 µM
[6] = second compound 0.00316 µM, first compound 10 µM
[7] = second compound 0.01 µM, first compound 0.0316 µM
[8] = second compound 0.01 µM, first compound 0.1 µM
[9] = second compound 0.01 µM, first compound 0.316 µM
[10] = second compound 0.01 µM, first compound 1 µM
[11] = second compound 0.01 µM, first compound 3.16 µM
[12] = second compound 0.01 µM, first compound 10 µM
[13] = second compound 0.0316 µM, first compound 0.0316 µM
[14] = second compound 0.0316 µM, first compound 0.1 µM
[15] = second compound 0.0316 µM, first compound 0.316 µM
[16] = second compound 0.0316 µM, first compound 1 µM
[17] = second compound 0.0316 µM, first compound 3.16 µM
[18] = second compound 0.0316 µM, first compound 10 µM
[19] = second compound 0.1 µM, first compound 0.0316 µM
[20] = second compound 0.1 µM, first compound 0.1 µM
[21] = second compound 0.1 µM, first compound 0.316 µM
[22] = second compound 0.1 µM, first compound 1 µM
[23] = second compound 0.1 µM, first compound 3.16 µM
[24] = second compound 0.1 µM, first compound 10 µM
[25] = second compound 0.316 µM, first compound 0.0316 µM
[26] = second compound 0.316 µM, first compound 0.1 µM
[27] = second compound 0.316 µM, first compound 0.316 µM
[28] = second compound 0.316 µM, first compound 1 µM
[29] = second compound 0.316 µM, first compound 3.16 µM
[30] = second compound 0.316 µM, first compound 10 µM
[31] = second compound 1 µM, first compound 0.0316 µM
[32] = second compound 1 µM, first compound 0.1 µM
[33] = second compound 1 µM, first compound 0.316 µM
[34] = second compound 1 µM, first compound 1 µM
[35] = second compound 1 µM, first compound 3.16 µM
[36] = second compound 1 µM, first compound 10 µM
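Note: spheroids exposed to compounds for seven days before viability reading.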
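Throughout, for viability, T/C: 100% = DMSO vehicle control viability.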

`Cn1ncc(Cl)c1-c1cc(C(=O)NC(CN)Cc2cccc(F)c2)sc1Cl` (stereo unspecified) + COc1c(OCCCN2CCOCC2)ccc2c3n(c(=NC(=O)c4cnc(N)nc4)nc12)CCN3 showed an IC50 (second compound 0.00316 µM) of 0.224 µM, an IC50 (second compound 0.01 µM) of 0.225 µM and an IC50 (second compound 0.0316 µM) of 0.0468 µM. It also gave an IC50 (second compound 0.1 µM) of under 0.0316 µM, an IC50 (second compound 0.316 µM) of under 0.0316 µM and an IC50 (second compound 1 µM) of under 0.0316 µM. The viability, T/C [1] was 93%, the viability, T/C [2] was 63.4% and the viability, T/C [3] was 42.9%. For the same compound, the viability, T/C [4] was 30.4%, the viability, T/C [5] was 20.4% and the viability, T/C [6] was 9.36%. The viability, T/C [7] was 86.4%, the viability, T/C [8] was 71.8% and the viability, T/C [9] was 38.2%. It also gave a viability, T/C [10] of 23.1%, a viability, T/C [11] of 14.4% and a viability, T/C [12] of 4.57%. For the same compound, the viability, T/C [13] was 58.3%, the viability, T/C [14] was 33.6% and the viability, T/C [15] was 23.5%. It also gave a viability, T/C [16] of 13.7%, a viability, T/C [17] of 10.4% and a viability, T/C [18] of 2.08%. It also gave a viability, T/C [19] of 21.1%, a viability, T/C [20] of 13.3% and a viability, T/C [21] of 8.18%. The viability, T/C [22] was 6.79%, the viability, T/C [23] was 6.13% and the viability, T/C [24] was 1.39%. For the same compound, the viability, T/C [25] was 4.19%, the viability, T/C [26] was 4.53% and the viability, T/C [27] was 2.93%. It also gave a viability, T/C [28] of 5.08%, a viability, T/C [29] of 3.95% and a viability, T/C [30] of 0.44%. It also gave a viability, T/C [31] of 2.43%, a viability, T/C [32] of 1.6% and a viability, T/C [33] of 2.02%. The viability, T/C [34] was 1.95%, the viability, T/C [35] was 1.4% and the viability, T/C [36] was 0.21%.

`CC(C)NCC(C(=O)N1CCN(c2ncnc3c2C(C)CC3O)CC1)c1ccc(Cl)cc1` (stereo unspecified) + CC(Nc1ncnc2nc[nH]c12)c1cc2cccc(Cl)c2c(=O)n1-c1ccccc1 gave an IC50 (second compound 0.0316 µM) of 2.28 µM, an IC50 (second compound 0.1 µM) of 1.06 µM and an IC50 (second compound 0.316 µM) of 1.11 µM. It also gave an IC50 (second compound 1 µM) of 0.815 µM, an IC50 (second compound 3.16 µM) of 0.539 µM and an IC50 (second compound 10 µM) of 0.466 µM. For the same compound, the viability, T/C [13] was 90.7%, the viability, T/C [14] was 78.6% and the viability, T/C [15] was 80.1%. It also gave a viability, T/C [16] of 60.4%, a viability, T/C [17] of 45.4% and a viability, T/C [18] of 31.2%. It also gave a viability, T/C [19] of 82.5%, a viability, T/C [20] of 94% and a viability, T/C [21] of 70.5%. It also gave a viability, T/C [22] of 50%, a viability, T/C [23] of 40.1% and a viability, T/C [24] of 28.2%. For the same compound, the viability, T/C [25] was 85.6%, the viability, T/C [26] was 92.2% and the viability, T/C [27] was 68.8%. It also gave a viability, T/C [28] of 48.9%, a viability, T/C [29] of 42.5% and a viability, T/C [30] of 26.3%. It also gave a viability, T/C [31] of 96.7%, a viability, T/C [32] of 77.5% and a viability, T/C [33] of 63.8%. The viability, T/C [34] was 49.6%, the viability, T/C [35] was 30% and the viability, T/C [36] was 23%. For the same compound, the viability, T/C (second compound 3.16 µM, first compound 0.0316 µM) was 96.5%, the viability, T/C (second compound 3.16 µM, first compound 0.1 µM) was 92.8% and the viability, T/C (second compound 3.16 µM, first compound 0.316 µM) was 58.7%. For the same compound, the viability, T/C (second compound 3.16 µM, first compound 1 µM) was 36.8%, the viability, T/C (second compound 3.16 µM, first compound 3.16 µM) was 30.9% and the viability, T/C (second compound 3.16 µM, first compound 10 µM) was 17.6%. It also gave a viability, T/C (second compound 10 µM, first compound 0.0316 µM) of 77.3%, a viability, T/C (second compound 10 µM, first compound 0.1 µM) of 78.8% and a viability, T/C (second compound 10 µM, first compound 0.316 µM) of 54.2%. It also gave a viability, T/C (second compound 10 µM, first compound 1 µM) of 36.3%, a viability, T/C (second compound 10 µM, first compound 3.16 µM) of 21.4% and a viability, T/C (second compound 10 µM, first compound 10 µM) of 14.4%.

`CC(C)NCC(C(=O)N1CCN(c2ncnc3c2C(C)CC3O)CC1)c1ccc(Cl)cc1` (stereo unspecified) + COc1c(OCCCN2CCOCC2)ccc2c3n(c(=NC(=O)c4cnc(N)nc4)nc12)CCN3 was tested, and the IC50 (second compound 0.00316 µM) was 0.919 µM, the IC50 (second compound 0.01 µM) was 0.551 µM and the IC50 (second compound 0.0316 µM) was 0.178 µM. For the same compound, the IC50 (second compound 0.1 µM) was under 0.0316 µM, the IC50 (second compound 0.316 µM) was under 0.0316 µM and the IC50 (second compound 1 µM) was under 0.0316 µM. For the same compound, the viability, T/C [1] was 93.9%, the viability, T/C [2] was 86.5% and the viability, T/C [3] was 73.1%. For the same compound, the viability, T/C [4] was 46.9%, the viability, T/C [5] was 30.9% and the viability, T/C [6] was 20.5%. It also gave a viability, T/C [7] of 102%, a viability, T/C [8] of 93.2% and a viability, T/C [9] of 68.8%. For the same compound, the viability, T/C [10] was 29.2%, the viability, T/C [11] was 20.6% and the viability, T/C [12] was 12.2%. It also gave a viability, T/C [13] of 69.4%, a viability, T/C [14] of 62.7% and a viability, T/C [15] of 37.1%. The viability, T/C [16] was 23.2%, the viability, T/C [17] was 15.2% and the viability, T/C [18] was 10.8%. It also gave a viability, T/C [19] of 21.8%, a viability, T/C [20] of 16.4% and a viability, T/C [21] of 11%. For the same compound, the viability, T/C [22] was 7.77%, the viability, T/C [23] was 7.84% and the viability, T/C [24] was 5.5%. For the same compound, the viability, T/C [25] was 5.04%, the viability, T/C [26] was 3.98% and the viability, T/C [27] was 5.15%. The viability, T/C [28] was 10.1%, the viability, T/C [29] was 6.04% and the viability, T/C [30] was 8.76%. For the same compound, the viability, T/C [31] was 1.65%, the viability, T/C [32] was 3.37% and the viability, T/C [33] was 1.85%. The viability, T/C [34] was 2.98%, the viability, T/C [35] was 2.47% and the viability, T/C [36] was 2.26%.
